In ChEMBL document CHEMBL1132181, “Prodrugs for amidines: synthesis and anti-Pneumocystis carinii activity of carbamates of 2,5-bis(4-amidinophenyl)furan” (J Med Chem, 1999):

Legend:
[1] = system: Pneumocystis carinii; assay: The compound was tested in vivo against Pneumocystis carinii pneumonia (PCP) in the immunosuppressed rat model at oral dose of 33.0(umol/kg/day); format: functional
[2] = system: Rattus norvegicus; assay: Toxicity is evaluated according to a five-level scale ranging from 0 to 5+ at the specified oral dose of 33.0 (umol/kg/day); format: organism-based; settings: in vivo
[3] = system: Rattus norvegicus; assay: Toxicity is evaluated according to a five-level scale ranging from 0 to 5+ at the specified iv dose of 22.0 (umol/kg/day); format: organism-based; settings: in vivo
[4] = system: Pneumocystis carinii; assay: The compound was tested in vivo against Pneumocystis carinii pneumonia (PCP) in the immunosuppressed rat model at iv dose of 22.0 (umol/kg/day); format: functional
[5] = system: Pneumocystis carinii; assay: The compound was tested in vivo against Pneumocystis carinii pneumonia (PCP) in the immunosuppressed rat model at iv dose of 11.3(umol/kg/day); format: functional
[6] = system: Rattus norvegicus; assay: Toxicity is evaluated according to a five-level scale ranging from 0 to 5+ at the specified iv dose of 11.0 (umol/kg/day); format: organism-based; settings: in vivo
[7] = system: Rattus norvegicus; assay: Toxicity is evaluated according to a five-level scale ranging from 0 to 5+ at the specified iv dose of 34.7 (umol/kg/day); format: organism-based; settings: in vivo
[8] = system: Pneumocystis carinii; assay: The compound was tested in vivo against Pneumocystis carinii pneumonia (PCP) in the immunosuppressed rat model at iv dose of 34.7 (umol/kg/day); format: functional
[9] = system: Pneumocystis carinii; assay: The compound was tested in vivo against Pneumocystis carinii pneumonia (PCP) in the immunosuppressed rat model at iv dose of 11.0 (umol/kg/day); format: functional
[10] = system: Rattus norvegicus; assay: Toxicity is evaluated according to a five-level scale ranging from 0 to 5+ at the specified iv dose of 13.3 (umol/kg/day); format: organism-based; settings: in vivo
[11] = system: Pneumocystis carinii; assay: The compound was tested in vivo against Pneumocystis carinii pneumonia (PCP) in the immunosuppressed rat model at iv dose of 13.3 (umol/kg/day); format: functional
[12] = system: Rattus norvegicus; assay: Toxicity is evaluated according to a five-level scale ranging from 0 to 5+ at the specified oral dose of 39.8 (umol/kg/day); format: organism-based; settings: in vivo
[13] = system: Pneumocystis carinii; assay: The compound was tested in vivo against Pneumocystis carinii pneumonia (PCP) in the immunosuppressed rat model at oral dose of 39.8(umol/kg/day); format: functional

Question: `CCSC(=O)NC(=N)c1ccc(-c2ccc(-c3ccc(C(=N)NC(=O)SCC)cc3)o2)cc1` was tested. Which Control [1] did it give?
Answer: The Control was 19.52%.

Question: And the Toxicity [2]?
Answer: The Toxicity was 0.

Question: What about the Toxicity [3] of the same compound?
Answer: Its Toxicity is 0.

Question: What about the Control [4] of the same compound?
Answer: The Control was 83.01%.

Question: `Cc1oc(=O)oc1COC(=O)NC(=N)c1ccc(-c2ccc(-c3ccc(C(=N)NC(=O)OCc4oc(=O)oc4C)cc3)o2)cc1` was tested. Which Control [1] did it give?
Answer: Its Control is 18.73%.

Question: And the Toxicity [2]?
Answer: The Toxicity was 0.

Question: What about the Toxicity [3] of the same compound?
Answer: Its Toxicity is 0.

Question: And the Control [4]?
Answer: Its Control is 0.02%.

Question: `COc1ccc(OC(=O)NC(=N)c2ccc(-c3ccc(-c4ccc(C(=N)NC(=O)Oc5ccc(OC)cc5)cc4)o3)cc2)cc1` was tested. Which Control [1] did it give?
Answer: The Control was 2.1%.

Question: And the Toxicity [2]?
Answer: Its Toxicity is 0.

Question: And the Toxicity [3]?
Answer: The Toxicity was 0.

Question: What about the Control [4] of the same compound?
Answer: Its Control is 0.02%.

Question: What does the source list for `N=C(NC(=O)OCc1ccccc1)c1ccc(-c2ccc(-c3ccc(C(=N)NC(=O)OCc4ccccc4)cc3)o2)cc1`?
Answer: Control [5]: 0.03%; Toxicity [6]: 0; Control [1]: 18.09%; Toxicity [2]: 0

Question: How did the Control [1] turn out when `N=C(NC(=O)Oc1ccc(F)cc1)c1ccc(-c2ccc(-c3ccc(C(=N)NC(=O)Oc4ccc(F)cc4)cc3)o2)cc1` was run?
Answer: Its Control is 2.21%.

Question: And the Toxicity [2]?
Answer: Its Toxicity is 0.

Question: What about the Toxicity [3] of the same compound?
Answer: Its Toxicity is 0.

Question: And the Control [4]?
Answer: Its Control is 0.02%.

Question: With `COC(=O)NC(=N)c1ccc(-c2ccc(-c3ccc(C(=N)NC(=O)OC)cc3)o2)cc1` as the compound, how does the Control [1] read?
Answer: The Control was 49.68%.

Question: What about the Toxicity [2] of the same compound?
Answer: Its Toxicity is 0.

Question: What about the Toxicity [3] of the same compound?
Answer: Its Toxicity is 0.

Question: What about the Control [4] of the same compound?
Answer: Its Control is 6.91%.

Question: Which results are given for `N=C(NC(=O)Oc1ccccc1)c1ccc(-c2ccc(-c3ccc(C(=N)NC(=O)Oc4ccccc4)cc3)o2)cc1`?
Answer: Control [1]: 5.7%; Toxicity [2]: 0; Toxicity [3]: 0; Control [4]: 3.61%

Question: Which results are given for `CCOC(=O)ONC(=N)c1ccc(-c2ccc(-c3ccc(C(=N)NOC(=O)OCC)cc3)o2)cc1`?
Answer: Toxicity [7]: 0; Control [8]: 1.66%; Control [1]: 96.9%; Toxicity [2]: 0

Question: `N/C(=N\C(=O)OCC(Cl)(Cl)Cl)c1ccc(-c2ccc(-c3ccc(/C(N)=N\C(=O)OCC(Cl)(Cl)Cl)cc3)o2)cc1` was tested. Which Control [1] did it give?
Answer: Its Control is 8.59%.

Question: And the Toxicity [2]?
Answer: Its Toxicity is 0.

Question: What about the Toxicity [3] of the same compound?
Answer: Its Toxicity is 0.

Question: What about the Control [4] of the same compound?
Answer: Its Control is 1.85%.

Question: Which results are given for `CC(=O)OC(C)OC(=O)NC(=N)c1ccc(-c2ccc(-c3ccc(C(=N)NC(=O)OC(C)OC(C)=O)cc3)o2)cc1` (centres undefined)?
Answer: Control [9]: 1.21%; Control [1]: 57.16%; Toxicity [2]: 0

Question: How did the Toxicity [10] turn out when `N=C(N)c1ccc(-c2ccc(-c3ccc(C(=N)N)cc3)o2)cc1` [FURAMIDINE] was run?
Answer: The Toxicity was 0.

Question: And the Control [11]?
Answer: Its Control is 0.83%.

Question: What about the Toxicity [12] of the same compound?
Answer: Its Toxicity is 0.

Question: And the Control [13]?
Answer: The Control was 44.52%.

Question: How did the Control [4] turn out when `N=C(N)c1ccc(OCCCCCOc2ccc(C(=N)N)cc2)cc1` [PENTAMIDINE] was run?
Answer: Its Control is 3.06%.
